Measurements taken from patent US11787833B2, “Modified cyclic dinucleoside compounds as sting modulators” (ALIGOS THERAPEUTICS, INC., priority 2019, dated 2023).
Read-outs that look alike come from different tables or passages of the source.

Target: T1, 293T-Dual hSTING-R232 cells (Homo sapiens, UniProt Q86WV6, H232R)
T1 construct: host or cells: 293T-Dual hSTING-R232 cells (HEK 293T)
Assay: 293T R232 cell reporter assay (HEK 293T reporter assay)
Assay type: cell-based
Conditions: digitonin 10 μg/mL, 30 min exposure, 20 h incubation
Method: 293T-Dual hSTING-R232 cells (Invivogen) were plated in 96 well plates at a density of 5×10^4 cells per well in DMEM supplemented with 10% FBS, 1% Pen-Strep, 1% non-essential amino acids, 1% glutamine, and 1% HEPES. Assay setup took place after allowing cells to adhere for 48 h. Compounds dissolved in water were serially diluted in dosing buffer containing 10 μg/mL digitonin. Media was aspirated from the cells, and 50 μL buffer with compound was added in triplicate. After 30 min at 37° C., buffer was aspirated and replaced with 100 μL media. Cells were incubated for 20 h at 37° C., 5% CO2. IFN-beta expression and activation of the interferon regulatory factor (IRF) were measured based on luciferase and alkaline phosphatase reporter activity, respectively. Cell viability was determined in parallel.

[1] = alkaline phosphatase reporter, read-out: EC50 [μM] IRF reporter
[2] = luciferase reporter, read-out: EC50 [μM] IRN-β reporter
[3] = EC50 [μM] IRF reporter, alkaline phosphatase reporter
[4] = EC50 [μM] IRN-β reporter, luciferase reporter

T1 sequence (Q86WV6 whole entry H232R): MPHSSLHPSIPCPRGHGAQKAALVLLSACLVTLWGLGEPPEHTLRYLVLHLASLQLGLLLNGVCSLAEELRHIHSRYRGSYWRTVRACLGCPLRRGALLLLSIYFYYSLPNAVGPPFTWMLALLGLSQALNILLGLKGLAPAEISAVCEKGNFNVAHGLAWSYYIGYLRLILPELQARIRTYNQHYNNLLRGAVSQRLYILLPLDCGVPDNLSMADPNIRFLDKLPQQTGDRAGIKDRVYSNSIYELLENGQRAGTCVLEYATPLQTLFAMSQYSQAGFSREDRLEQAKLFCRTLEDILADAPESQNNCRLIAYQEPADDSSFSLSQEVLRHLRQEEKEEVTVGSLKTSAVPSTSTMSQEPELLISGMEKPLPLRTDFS

COC1C2COP(=O)(S)OC3C(O)C(n4cnc5c(N)ncnc54)C4CC43COP(=O)(S)OC1C(n1cnc3c(=O)[nH]c(N)nc31)O2 (single isomer, unassigned) [Compound 1-6a]
EC50 [1]: 0.25 to 100 µM | EC50 [2]: 0.25 to 100 µM

COC1C2COP(=O)(S)OC3C(O)C(n4cnc5c(N)ncnc54)C4CC43COP(=O)(S)OC1C(n1cnc3c(=O)[nH]c(N)nc31)O2 (single isomer, unassigned) [Compound 1-6b]
EC50 [1]: 0.25 to 100 µM

Nc1ncnc2c1ncn2C1OC2COP(=O)(S)OC3C(O)C(n4cnc5c(N)ncnc54)C4CC43COP(=O)(S)OC1C2O (single isomer, unassigned) [Compound 1-14a]
EC50 [1]: 0.25 to 100 µM | EC50 [2]: > 100 µM

Nc1ncnc2c1ncn2C1OC2COP(=O)(S)OC3C(O)C(n4cnc5c(N)ncnc54)C4CC43COP(=O)(S)OC1C2O (single isomer, unassigned) [Compound 1-14b]
EC50 [1]: 0.25 to 100 µM | EC50 [2]: > 100 µM

Nc1nc2c(ncn2C2SC3COP(=O)(S)OC4C(O)C(n5cnc6c(N)ncnc65)C5CC54COP(=O)(O)OC2C3O)c(=O)[nH]1 (single isomer, unassigned) [Compound 1-30a]
EC50 [1]: 0.25 to 100 µM | EC50 [2]: 0.25 to 100 µM

Nc1nc2c(ncn2C2SC3COP(=O)(S)OC4C(O)C(n5cnc6c(N)ncnc65)C5CC54COP(=O)(O)OC2C3O)c(=O)[nH]1 (single isomer, unassigned) [Compound 1-30b]
EC50 [1]: > 100 µM | EC50 [2]: > 100 µM

COC1C2COP(=O)(S)OC3C(COP(=O)(S)OC1C(c1snc4c(=O)[nH]c(N)nc14)O2)OC(n1cnc2c(N)ncnc21)C3F (single isomer, unassigned) [Compound 1-48a]
EC50 [1]: 0.25 to 100 µM | EC50 [2]: 0.25 to 100 µM

COC1C2COP(=O)(S)OC3C(COP(=O)(S)OC1C(c1snc4c(=O)[nH]c(N)nc14)O2)OC(n1cnc2c(N)ncnc21)C3F (single isomer, unassigned) [Compound 1-48b]
EC50 [1]: < 0.25 µM | EC50 [2]: < 0.25 µM

CO[C@H]1[C@H]2OP(=O)(O)OC[C@@]34C[C@@H]3[C@@H](n3cnc5c(N)ncnc53)[C@H](OP(=O)(O)OC[C@H]1O[C@H]2n1cnc2c(=O)[nH]c(N)nc21)[C@@H]4O [Compound 1-3]
EC50 [1]: 0.25 to 100 µM | EC50 [2]: > 100 µM

CO[C@H]1[C@H]2OP(=O)(O)OC[C@@]34C[C@@H]3[C@@H](n3ccc5c(N)ncnc53)[C@H](O)[C@@H]4OP(=O)(O)OC[C@H]1O[C@H]2n1cnc2c(=O)[nH]c(N)nc21 [Compound 1-4]
EC50 [1]: < 0.25 µM | EC50 [2]: < 0.25 µM

COC1C2COP(=O)(O)OC3C(COP(=O)(O)OC1C(c1scc4c(=O)[nH]c(N)nc14)O2)OC(n1cnc2c(N)ncnc21)C3F (stereo not drawn) [Compound 1-5]
EC50 [1]: < 0.25 µM | EC50 [2]: < 0.25 µM

CO[C@H]1[C@H]2OP(=O)(O)OC[C@@H]3[C@@H](OP(=O)(O)OC[C@H]1O[C@H]2n1cnc2c(=O)[nH]c(N)nc21)[C@@H](O)[C@]1(n2cnc4c(N)ncnc42)C[C@@H]31 [Compound 1-7]
EC50 [1]: < 0.25 µM | EC50 [2]: < 0.25 µM

Nc1nc2c(ncn2[C@H]2[C@@H]3OP(=O)(O)OC[C@H]4O[C@@H](n5cnc6c(N)ncnc65)[C@H](F)[C@@H]4OP(=O)(O)OC[C@]4(C[C@H]24)[C@H]3O)c(=O)[nH]1 [Compound 1-8]
EC50 [1]: 0.25 to 100 µM | EC50 [2]: 0.25 to 100 µM

Nc1nc2c(ncn2[C@H]2[C@H](O)[C@@H]3OP(=O)(O)OC[C@H]4O[C@@H](n5cnc6c(N)ncnc65)[C@H](F)[C@@H]4OP(=O)(O)OC[C@@]34C[C@H]24)c(=O)[nH]1 [Compound 1-9]
EC50 [1]: < 0.25 µM | EC50 [2]: < 0.25 µM

CO[C@H]1[C@H]2OP(=O)(O)OC[C@]34C[C@@H]3[C@@H](n3cnc5c(N)ncnc53)[C@H](O)[C@@H]4O[P@](=O)([S][Na])OC[C@H]1O[C@H]2n1cnc2c(=O)[nH]c(N)nc21 [Compound 1-10a]
EC50 [3]: 0.25 to 100 µM | EC50 [4]: 0.25 to 100 µM

CO[C@H]1[C@H]2OP(=O)(O)OC[C@H]3O[C@@H](n4cnc5c(N)nnnc54)[C@H](O)[C@@H]3OP(=O)(O)OC[C@H]1O[C@H]2n1cnc2c(=O)[nH]c(N)nc21 [Compound 1-11]
EC50 [1]: > 100 µM | EC50 [2]: > 100 µM

CO[C@H]1[C@H]2OP(=O)(O)OC[C@]34C[C@@H]3[C@@H](n3cnc5c(N)ncnc53)[C@H](O)[C@@H]4OP(=O)(O)OC[C@H]1O[C@H]2c1scc2c(=O)[nH]c(N)nc12 [Compound 1-12]
EC50 [1]: > 100 µM | EC50 [2]: > 100 µM

Nc1ncnc2c1ncn2C1OC2COP(=O)(S)OC3C(O)C(n4cnc5c(N)ncnc54)C4CC43COP(=O)(S)OC1C2O (stereo not drawn) [Compound 1-14c]
EC50 [1]: 0.25 to 100 µM | EC50 [2]: 0.25 to 100 µM

Nc1ncnc2c1ncn2[C@H]1[C@H](O)[C@@H]2O[P@](=O)([S][Na])OC[C@H]3O[C@@H](n4cnc5c(N)ncnc54)[C@H](OP(=O)(O)OC[C@@]24C[C@H]14)[C@@H]3O [Compound 1-15a]
EC50 [3]: > 100 µM | EC50 [4]: > 100 µM

Nc1ncnc2c1ncn2[C@H]1[C@H](O)[C@@H]2O[P@@](=O)([S][Na])OC[C@H]3O[C@@H](n4cnc5c(N)ncnc54)[C@H](OP(=O)(O)OC[C@@]24C[C@H]14)[C@@H]3O [Compound 1-15b]
EC50 [3]: 0.25 to 100 µM | EC50 [4]: 0.25 to 100 µM

COC1C2COP(=O)(S)OC3C(COP(=O)(O)OC1C(n1cnc4c(=O)[nH]c(N)nc41)O2)C1CC1(n1cnc2c(N)ncnc21)C3O (stereo not drawn) [Compound 1-16a]
EC50 [1]: 0.25 to 100 µM | EC50 [2]: 0.25 to 100 µM

Nc1nc2c(ncn2[C@@H]2O[C@@H]3COP(=O)(O)O[C@@H]4[C@@H](COP(=O)(O)O[C@H]3[C@H]2O)[C@@H]2C[C@@]2(n2cnc3c(N)ncnc32)[C@@H]4O)c(=O)[nH]1 [Compound 1-17]
EC50 [1]: < 0.25 µM | EC50 [2]: < 0.25 µM

Nc1nc2c(ncn2[C@H]2[C@H](O)[C@@H]3OP(=O)(O)OC[C@H]4O[C@@H](n5cnc6c(N)ncnc65)[C@H](F)[C@@H]4O[P@](=O)([S][Na])OC[C@@]34C[C@H]24)c(=O)[nH]1 [Compound 1-19a]
EC50 [3]: 0.25 to 100 µM | EC50 [4]: 0.25 to 100 µM

Nc1ncnc2c1ncn2[C@H]1[C@H](O)[C@@H]2O[P@](=O)([S][Na])OC[C@H]3O[C@@H](n4cnc5c(=O)[nH]cnc54)[C@H](F)[C@@H]3OP(=O)(O)OC[C@@]23C[C@H]13 [Compound 1-20a]
EC50 [3]: 0.25 to 100 µM | EC50 [4]: 0.25 to 100 µM

Nc1nc2c(ncn2[C@@H]2O[C@@H]3CO[P@@](=O)([S][Na])O[C@H]4[C@@H](O)[C@H](n5cnc6c(N)ncnc65)[C@H]5C[C@]54COP(=O)(O)O[C@@H]2[C@@H]3F)c(=O)[nH]1 [Compound 1-22a]
EC50 [3]: 0.25 to 100 µM | EC50 [4]: 0.25 to 100 µM

Nc1nc2c(ncn2[C@H]2[C@H](O)[C@@H]3OP(=O)(O)OC[C@H]4C[C@@H](n5cnc6c(N)ncnc65)[C@H](O)[C@@H]4OP(=O)(O)OC[C@@]34C[C@H]24)c(=O)[nH]1 [Compound 1-23]
EC50 [1]: 0.25 to 100 µM | EC50 [2]: 0.25 to 100 µM

Nc1nc2c(ncn2[C@@]23C[C@H]2[C@@H]2COP(=O)(O)O[C@H]4[C@@H](F)[C@H](n5cnc6c(N)ncnc65)O[C@@H]4COP(=O)(O)O[C@@H]3[C@@H]2O)c(=O)[nH]1 [Compound 1-24]
EC50 [1]: 0.25 to 100 µM | EC50 [2]: > 100 µM

COC1C2COP(=O)(O)OC3CC(c4snc5c(N)ncnc45)OC3COP(=O)(O)OC1C(n1cnc3c(=O)[nH]c(N)nc31)O2 (stereo not drawn) [Compound 1-25]
EC50 [1]: < 0.25 µM | EC50 [2]: < 0.25 µM

Nc1nc2c(ncn2C2OC34COP(=O)(O)OC5C6OCC5(COP(=O)(O)OC2C3C4)OC6n2cnc3c(N)ncnc32)c(=O)[nH]1 (stereo not drawn) [Compound 1-27]
EC50 [1]: < 0.25 µM | EC50 [2]: < 0.25 µM

Nc1nc2c(nnn2[C@@H]2O[C@@H]3CO[P@@](=O)([S][Na])O[C@H]4[C@@H](O)[C@H](n5cnc6c(N)ncnc65)[C@H]5C[C@@]54COP(=O)(O)O[C@@H]2[C@@H]3O)c(=O)[nH]1 [Compound 1-34b]
EC50 [3]: 0.25 to 100 µM | EC50 [4]: 0.25 to 100 µM

CO[C@H]1[C@H]2OP(=O)(O)OC[C@]34C[C@@H]3[C@@H](n3cnc5c(N)ncnc53)[C@H](O)[C@@H]4O[P@@](=O)(S)OC[C@H]1O[C@H]2n1nnc2c(=O)[nH]c(N)nc21 [Compound 1-35b]
EC50 [1]: < 0.25 µM | EC50 [2]: 0.25 to 100 µM

Nc1nc2c(ncn2[C@H]2[C@@H]3OP(=O)(O)OC[C@]45C[C@@H]4[C@@H](n4cnc6c(N)ncnc64)[C@H](O)[C@@H]5O[P@](=O)([S][Na])OC[C@@]4(C[C@H]24)[C@H]3O)c(=O)[nH]1 [Compound 1-37]
EC50 [3]: 0.25 to 100 µM | EC50 [4]: > 100 µM

Nc1nc2c(ncn2[C@H]2[C@H](O)[C@@H]3OP(=O)(O)OC[C@]45C[C@@H]4[C@@H](n4cnc6c(N)ncnc64)[C@H](O)[C@@H]5O[P@](=O)([S][Na])OC[C@@]34C[C@H]24)c(=O)[nH]1 [Compound 1-38a]
EC50 [3]: > 100 µM | EC50 [4]: > 100 µM

Nc1nc2c(ncn2[C@H]2[C@H](O)[C@@H]3OP(=O)(O)OC[C@]45C[C@@H]4[C@@H](n4cnc6c(N)ncnc64)[C@H](O)[C@@H]5O[P@@](=O)([S][Na])OC[C@@]34C[C@H]24)c(=O)[nH]1 [Compound 1-38b]
EC50 [3]: > 100 µM | EC50 [4]: > 100 µM

COC1C2COP(=O)(S)OC3C(COP(=O)(S)OC1C(c1snc4c(=O)[nH]c(N)nc14)O2)OC(n1cnc2c(N)ncnc21)C3F (stereo not drawn) [Compound 1-48c]
EC50 [1]: < 0.25 µM | EC50 [2]: 0.25 to 100 µM

COC1C2COP(=O)(S)OC3C(COP(=O)(S)OC1C(c1snc4c(=O)[nH]c(N)nc14)O2)OC(n1cnc2c(N)ncnc21)C3F (stereo not drawn) [Compound 1-48d]
EC50 [1]: < 0.25 µM

CO[C@H]1[C@H]2OP(=O)(O)OC[C@@]34CO[C@@H]([C@H](n5cnc6c(N)ncnc65)O3)[C@@H]4OP(=O)(O)OC[C@H]1O[C@H]2c1snc2c(=O)[nH]c(N)nc12 [Compound 1-49]
EC50 [1]: < 0.25 µM | EC50 [2]: 0.25 to 100 µM
